Assay [1] concerns the target JAK1 (Homo sapiens (Human), UniProt P23458). Put plainly: Jak biochemical HTRF assay, JAK1. Conditions: HTRF biochemical assay, recombinant GST-tagged catalytic domain; read-out: JAK1 IC50.
In assay [2] the target is JAK2 (Homo sapiens (Human), UniProt O60674). As to the kind of experiment: Jak biochemical HTRF assay, JAK2. Conditions: HTRF biochemical assay, recombinant GST-tagged catalytic domain; read-out: JAK2 IC50. On the technique in general: In TR-FRET formats the signal depends on donor and acceptor labels being close together.

The values that follow come from patent publication US9725445B2, “Cycloalkyl nitrile pyrazolo pyridones as Janus kinase inhibitors” (Merck Sharp & Dohme Corp., priority 2013, dated 2017).

For orientation: IC50 means the concentration needed to halve the response being measured.

Chain of JAK2 (O60674 849-1124): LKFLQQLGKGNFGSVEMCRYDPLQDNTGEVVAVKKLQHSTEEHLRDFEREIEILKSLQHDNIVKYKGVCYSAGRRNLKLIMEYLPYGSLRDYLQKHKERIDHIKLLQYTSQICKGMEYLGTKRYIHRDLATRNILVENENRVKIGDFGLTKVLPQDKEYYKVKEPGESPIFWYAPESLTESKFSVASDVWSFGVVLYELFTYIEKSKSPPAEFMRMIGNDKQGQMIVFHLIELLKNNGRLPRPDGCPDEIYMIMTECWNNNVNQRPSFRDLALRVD
Chain of JAK1 (P23458 875-1153): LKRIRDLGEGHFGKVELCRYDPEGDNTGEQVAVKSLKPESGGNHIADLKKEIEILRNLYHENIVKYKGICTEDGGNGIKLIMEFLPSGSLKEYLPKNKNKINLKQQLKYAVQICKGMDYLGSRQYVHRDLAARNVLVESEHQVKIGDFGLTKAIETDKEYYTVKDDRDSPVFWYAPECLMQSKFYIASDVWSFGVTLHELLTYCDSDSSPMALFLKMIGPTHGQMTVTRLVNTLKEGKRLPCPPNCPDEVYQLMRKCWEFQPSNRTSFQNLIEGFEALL

Take `Cc1cn(Cc2cccc(Nc3nn([C@H]4CCCC[C@@H]4C#N)c4cc[nH]c(=O)c34)c2)nn1` [Example 3-37, (1S,2S)-2-[3-({3-[(4-methyl-1H-1,2,3-triazol-1-yl)methyl]phenyl}amino)-4-oxo-4,5-dihydro-1H-pyrazolo[4,3-c]pyridin-1-yl]cyclohexanecarbonitrile]: the IC50 came out at 0.18 nM in assay [1] and 2.1 nM in assay [2].
The like results for `CC1(C)OCC(C)(c2cccc(Nc3nn([C@H]4CCCC[C@@H]4C#N)c4cc[nH]c(=O)c34)c2)O1` (stereo partly drawn) [Example 3-38, (1S,2S)-2-{4-Oxo-3-[3-(2,2,4-trimethyl-[1,3]dioxolan-4-yl)-phenylamino]-4,5-dihydro-pyrazolo[4,3-c]pyridin-1-yl}-cyclohexanecarbonitrile] were, in that order, 5 nM and 16 nM.
The like results for `N#C[C@H]1CCCC[C@@H]1n1nc(Nc2cccc(CNCC(F)(F)F)c2)c2c(=O)[nH]ccc21` [Example 3-39, (1S,2S)-2-{4-oxo-3-[(3-{[(2,2,2-trifluoroethyl)amino]methyl}phenyl)amino]-4,5-dihydro-1H-pyrazolo[4,3-c]pyridin-1-yl}cyclohexanecarbonitrile] were, in that order, 0.64 nM and 1.8 nM.
With `CC(=O)NCc1cc(Nc2nn([C@H]3CCCC[C@@H]3C#N)c3cc[nH]c(=O)c23)ccc1S(=O)(=O)N(C)C` [Example 3-40, N-[5-({1-[(1S,2S)-2-cyanocyclohexyl]-4-oxo-4,5-dihydro-1H-pyrazolo[4,3-c]pyridin-3-yl}amino)-2-(dimethylsulfamoyl)benzyl]acetamide], the IC50 in assay [1] was 0.1 nM; in assay [2], 0.79 nM.
For `CC(C)(C)[S@@+]([O-])N[C@@H](c1cccc(Nc2nn([C@H]3CCCC[C@@H]3C#N)c3cc[nH]c(=O)c23)c1)C(F)(F)F` [Example 3-41, N-{(1S)-1-[3-({1-[(1S,2S)-2-cyanocyclohexyl]-4-oxo-4,5-dihydro-1H-pyrazolo[4,3-c]pyridin-3-yl}amino)phenyl]-2,2,2-trifluoroethyl}-2-methylpropane-2-sulfinamide], in that order: 1.6 nM and 29 nM.
The like results for `CC(C)(C)[S@+]([O-])N[C@H](c1cccc(Nc2nn([C@H]3CCCC[C@@H]3C#N)c3cc[nH]c(=O)c23)c1)C(F)(F)F` [Example 3-42, N-{(1R)-1-[3-({1-[(1S,2S)-2-cyanocyclohexyl]-4-oxo-4,5-dihydro-1H-pyrazolo[4,3-c]pyridin-3-yl}amino)phenyl]-2,2,2-trifluoroethyl}-2-methylpropane-2-sulfinamide] were, in that order, 0.46 nM and 13 nM.
For the compound `N#C[C@H]1CCCC[C@@H]1n1nc(Nc2cccc(Cn3cccn3)c2)c2c(=O)[nH]ccc21` [Example 3-43, (1S,2S)-2-(4-oxo-3-{[3-(1H-pyrazol-1-ylmethyl)phenyl]amino}-4,5-dihydro-1H-pyrazolo[4,3-c]pyridin-1-yl)cyclohexanecarbonitrile], the results for the IC50 in assay [1] and in assay [2] were 1.4 nM and 1.7 nM, respectively.
For `N#C[C@H]1CCCC[C@@H]1n1nc(Nc2ccc(C(=O)N3CCCC3)cc2)c2c(=O)[nH]ccc21` [Example 3-44, (1S,2S)-2-(4-oxo-3-{[4-(pyrrolidin-1-ylcarbonyl)phenyl]amino}-4,5-dihydro-1H-pyrazolo[4,3-c]pyridin-1-yl)cyclohexanecarbonitrile], in that order: 1.4 nM and 4.8 nM.
The like results for `N#C[C@H]1CCCC[C@@H]1n1nc(Nc2ccc(Cn3nccn3)cc2)c2c(=O)[nH]ccc21` [Example 3-45, (1S,2S)-2-(4-oxo-3-{[4-(2H-1,2,3-triazol-2-ylmethyl)phenyl]amino}-4,5-dihydro-1H-pyrazolo[4,3-c]pyridin-1-yl)cyclohexanecarbonitrile] were, in that order, 0.37 nM and 0.42 nM.
For `N#C[C@H]1CCCC[C@@H]1n1nc(Nc2ccc(Cn3ccnn3)cc2)c2c(=O)[nH]ccc21` [Example 3-46, (1S,2S)-2-(4-oxo-3-{[4-(1H-1,2,3-triazol-1-ylmethyl)phenyl]amino}-4,5-dihydro-1H-pyrazolo[4,3-c]pyridin-1-yl)cyclohexanecarbonitrile], the IC50 in assay [1] worked out at 0.095 nM; in assay [2], 0.34 nM.
For the compound `N#C[C@H]1CCCC[C@@H]1n1nc(Nc2cccc(Cn3ccnc3)c2)c2c(=O)[nH]ccc21` [Example 3-47, (1S,2S)-2-(3-{[3-(1H-imidazol-1-ylmethyl)phenyl]amino}-4-oxo-4,5-dihydro-1H-pyrazolo[4,3-c]pyridin-1-yl)cyclohexanecarbonitrile], the values for the IC50 in assay [1] and in assay [2] were 0.78 nM and 2.2 nM, respectively.
Turning to `CN1Cc2cc(Nc3nn([C@H]4CCCC[C@@H]4C#N)c4cc[nH]c(=O)c34)ccc2S1(=O)=O` [Example 3-49, (1S,2S)-2-{3-[(2-methyl-1,1-dioxido-2,3-dihydro-1,2-benzisothiazol-5-yl)amino]-4-oxo-4,5-dihydro-1H-pyrazolo[4,3-c]pyridin-1-yl}cyclohexanecarbonitrile], the IC50 in assay [1] came out at 0.026 nM; in assay [2], 0.29 nM.
With `N#C[C@H]1CCCC[C@@H]1n1nc(Nc2cccc(Cn3cncn3)c2)c2c(=O)[nH]ccc21` [Example 3-50, (1S,2S)-2-(4-oxo-3-{[3-(1H-1,2,4-triazol-1-ylmethyl)phenyl]amino}-4,5-dihydro-1H-pyrazolo[4,3-c]pyridin-1-yl)cyclohexanecarbonitrile], the IC50 was found to be 0.5 nM in assay [1] and 1.3 nM in assay [2].
`N#C[C@H]1CCCC[C@@H]1n1nc(Nc2cccc(Cn3cnnc3)c2)c2c(=O)[nH]ccc21` [Example 3-51, (1S,2S)-2-(4-oxo-3-{[3-(4H-1,2,4-triazol-4-ylmethyl)phenyl]amino}-4,5-dihydro-1H-pyrazolo[4,3-c]pyridin-1-yl)cyclohexanecarbonitrile]: the IC50 in assay [1] was 0.25 nM; in assay [2], 1.2 nM.
Regarding `CC(C)(O)c1cn(Cc2ccc(Nc3nn([C@H]4CCCC[C@@H]4C#N)c4cc[nH]c(=O)c34)cc2)nn1` [Example 3-52, (1S,2S)-2-{3-[(4-{[4-(1-hydroxy-1-methylethyl)-1H-1,2,3-triazol-1-yl]methyl}phenyl)amino]-4-oxo-4,5-dihydro-1H-pyrazolo[4,3-c]pyridin-1-yl}cyclohexanecarbonitrile], the IC50 in assay [1] is 0.16 nM; in assay [2], 0.41 nM.
For `CC(C)(C)N1Cc2cc(Nc3nn([C@H]4CCCC[C@@H]4C#N)c4cc[nH]c(=O)c34)ccc2S1(=O)=O` [Example 3-53, (1S,2S)-2-{3-[(2-tert-butyl-1,1-dioxido-2,3-dihydro-1,2-benzisothiazol-5-yl)amino]-4-oxo-4,5-dihydro-1H-pyrazolo[4,3-c]pyridin-1-yl}cyclohexanecarbonitrile], in that order: 0.039 nM and 0.19 nM.
The like results for `N#C[C@H]1CCCC[C@@H]1n1nc(Nc2ccc3c(c2)CNS3(=O)=O)c2c(=O)[nH]ccc21` [Example 3-54, (1S,2S)-2-{3-[(1,1-dioxido-2,3-dihydro-1,2-benzisothiazol-5-yl)amino]-4-oxo-4,5-dihydro-1H-pyrazolo[4,3-c]pyridin-1-yl}cyclohexanecarbonitrile] were, in that order, 0.051 nM and 0.62 nM.
The like results for `N#C[C@H]1CCCC[C@@H]1n1nc(Nc2ccc(CNCC(F)(F)F)cc2)c2c(=O)[nH]ccc21` [Example 3-57, (1S,2S)-2-{4-oxo-3-[(4-{[(2,2,2-trifluoroethyl)amino]methyl}phenyl)amino]-4,5-dihydro-1H-pyrazolo[4,3-c]pyridin-1-yl}cyclohexanecarbonitrile] were, in that order, 0.2 nM and 0.53 nM.
As to `N#C[C@H]1CCCC[C@@H]1n1nc(Nc2ccc3c(c2)CN(CC(F)(F)F)S3(=O)=O)c2c(=O)[nH]ccc21` [Example 3-58, (1S,2S)-2-(3-{[1,1-dioxido-2-(2,2,2-trifluoroethyl)-2,3-dihydro-1,2-benzisothiazol-5-yl]amino}-4-oxo-4,5-dihydro-1H-pyrazolo[4,3-c]pyridin-1-yl)cyclohexanecarbonitrile], the IC50 is 0.05 nM in assay [1] and 0.58 nM in assay [2].
As to `N#C[C@H]1CCCC[C@@H]1n1nc(Nc2ccc3c(c2)CCS3(=O)=O)c2c(=O)[nH]ccc21` [Example 3-59, (1S,2S)-2-{3-[(1,1-dioxido-2,3-dihydro-1-benzothiophen-5-yl)amino]-4-oxo-4,5-dihydro-1H-pyrazolo[4,3-c]pyridin-1-yl}cyclohexanecarbonitrile], the figures for the IC50 in assay [1] and in assay [2] were 0.062 nM and 0.71 nM, respectively.
The like results for `CCN1Cc2cc(Nc3nn([C@H]4CCCC[C@@H]4C#N)c4cc[nH]c(=O)c34)ccc2S1(=O)=O` [Example 3-60, (1S,2S)-2-{3-[(2-ethyl-1,1-dioxido-2,3-dihydro-1,2-benzisothiazol-5-yl)amino]-4-oxo-4,5-dihydro-1H-pyrazolo[4,3-c]pyridin-1-yl}cyclohexanecarbonitrile] were, in that order, 0.044 nM and 0.41 nM.
The like results for `N#C[C@H]1CCCC[C@@H]1n1nc(Nc2ccc3c(c2)CN(CC(F)(F)F)C3)c2c(=O)[nH]ccc21` [Example 3-61, (1S,2S)-2-(4-oxo-3-{[2-(2,2,2-trifluoroethyl)-2,3-dihydro-1H-isoindol-5-yl]amino}-4,5-dihydro-1H-pyrazolo[4,3-c]pyridin-1-yl}cyclohexanecarbonitrile] were, in that order, 0.55 nM and 1.1 nM.
The like results for `CC(C)CN1Cc2cc(Nc3nn([C@H]4CCCC[C@@H]4C#N)c4cc[nH]c(=O)c34)ccc2S1(=O)=O` [Example 3-62, (1S,2S)-2-(3-{[2-(2-methylpropyl)-1,1-dioxido-2,3-dihydro-1,2-benzisothiazol-5-yl]amino}-4-oxo-4,5-dihydro-1H-pyrazolo[4,3-c]pyridin-1-yl)cyclohexanecarbonitrile] were, in that order, 0.083 nM and 0.41 nM.
For the compound `N#C[C@H]1CCCC[C@@H]1n1nc(Nc2ccc3c(c2)CN(CC2CC2)S3(=O)=O)c2c(=O)[nH]ccc21` [Example 3-63, (1S,2S)-2-(3-{[2-(cyclopropylmethyl)-1,1-dioxido-2,3-dihydro-1,2-benzisothiazol-5-yl]amino}-4-oxo-4,5-dihydro-1H-pyrazolo[4,3-c]pyridin-1-yl)cyclohexanecarbonitrile], the IC50 was 0.066 nM in assay [1] and 0.54 nM in assay [2].
